Like-named read-outs stand apart in the source and are kept apart here.
Experiments:
Type in all cases: in vivo
[1] = system: Pyricularia oryzae (Rice); settings: one or two days before inoculation
[2] = system: Septoria nodorum (Wheat); experiment: Foliar fungal disease test on plants: Septoria nodorum (Wheat); settings: one or two days before inoculation
Method: (§1) The compounds were tested against a variety of foliar fungal diseases of plants. The technique employed was as follows.
(§2) The plants were grown in John Innes Potting Compost (No 1 or 2) in 4 cm diameter minipots. The test compounds were formulated either by bead milling with aqueous DISPERSOL T or as a solution in acetone or acetone/ethanol which was diluted to the required concentration immediately before use. […] The sprays were applied to maximum retention and the root drenches to a final concentration equivalent to approximately 40 ppm a.i. in dry soil. TWEEN 20 was added to give a final concentration of 0.05% when the sprays were applied to cereals.
(§3) For most of the tests the compounds were applied to the soil (roots) or to the foliage (by spraying) one or two days before the plant was inoculated with the disease. An exception was the test on Erysiphe graminis in which the plants were inoculated 24 hours before treatment. Foliar pathogens were applied by spray as zoosporangial suspensions onto the leaves of test plants. After inoculation, the plants were put into an appropriate environment to allow infection to proceed and then incubated until the disease was ready for assessment. The period between inoculation and assessment varied from four to fourteen days according to the disease and environment.
(§4) The disease level present (i.e. leaf area covered by actively sporulating disease) on each of the treated plants was recorded using the following assessment scale:
(§5) Each assessment was then expressed as a percentage of the level of disease present on the untreated control plants. This calculated value is referred to as a POCO (Percentage of Control) value. An example of a typical calculation is as follows:
(§6) Disease level on untreated control=90
(§7) Disese level on treated plant=30 [formula]
(§8) This calculated POCO value is then rounded to the nearest of the values in the 9-point assessment scale shown above. In this particular example, the POCO value would be rounded to 30. If the calculated POCO falls exactly mid-way between two of the points, it is rounded to the lower of the two values.

[3] = system: Plasmopara viticola (Vines); experiment: Foliar fungal disease test on plants: Plasmopara viticola (Vines); settings: one or two days before inoculation
Method: as §1, §2, §3, §4, §5, §6, §7, §8

[4] = system: Puccinia recondita (Wheat); experiment: Foliar fungal disease test on plants: Puccinia recondita (Wheat)
Method: as §1
The plants were grown in John Innes Potting Compost (No 1 or 2) in 4 cm diameter minipots. The test compounds were formulated either by bead milling with aqueous DISPERSOL T or as a solution in acetone or acetone/ethanol which was diluted to the required concentration immediately before use. The formulations (100 ppm active ingredient) were sprayed on to the foliage or applied to the roots of the plants in the soil. The sprays were applied to maximum retention and the root drenches to a final concentration equivalent to approximately 40 ppm a.i. in dry soil. TWEEN 20 was added to give a final concentration of 0.05% when the sprays were applied to cereals.
as §3, with “For most of the tests the compounds were applied to the soil (roots) or to the foliage (by spraying) one or two days before the plant was inoculated with the disease.” left out
as §4, §5, §6, §7, §8

[5] = system: Venturia inaequalis (Apples); experiment: Foliar fungal disease test on plants: Venturia inaequalis (Apples); settings: one or two days before inoculation
Method: as §1, §2, §3, §4, §5, §6, §7, §8

[6] = system: Phytophthora infestans (Tomatoes); settings: one or two days before inoculation
[7] = system: Thanatephorus cucumeries (Rice); experiment: Foliar fungal disease test on plants: Thanatephorus cucumeries (Rice); settings: one or two days before inoculation
Method: as §1, §2, §3, §4, §5, §6, §7, §8

[8] = system: Erysiphe graminis tritici (Wheat); experiment: Foliar fungal disease test on plants: Erysiphe graminis tritici (Wheat); settings: plants inoculated 24 hours before treatment
Method: as §1, §2, §3, §4, §5, §6, §7, §8

[9] = 100 ppm a.i. foliar spray or root drench (approx. 40 ppm in dry soil)
[10] = 100 ppm a.i. foliar spray or root drench (approx. 40 ppm in dry soil), one or two days before inoculation
[11] = 100 ppm a.i. foliar spray or root drench, plants inoculated with Puccinia recondita 48 hours before treatment

| Compound | POCO (Percentage of Control) disease level, Pyricularia oryzae (Rice) ([1]; 10 ppm foliar spray only) | POCO (Percentage of Control) disease level, Septoria nodorum (Wheat) ([2]; 10 ppm foliar spray only) | POCO (Percentage of Control) disease level, Plasmopara viticola (Vines) ([3]; 10 ppm foliar spray only) | POCO (Percentage of Control) disease level, Puccinia recondita (Wheat) ([4]; 10 ppm foliar spray only, one or two days before inoculation) | POCO (Percentage of Control) disease level, Venturia inaequalis (Apples) ([5]; 10 ppm foliar spray only) | POCO (Percentage of Control) disease level, Phytophthora infestans (Tomatoes) ([6]; 10 ppm foliar spray only) | POCO (Percentage of Control) disease level, Thanatephorus cucumeries (Rice) ([7]; 10 ppm foliar spray only) | POCO (Percentage of Control) disease level, Pyricularia oryzae (Rice) [1, 9] | POCO (Percentage of Control) disease level, Septoria nodorum (Wheat) [2, 9] | POCO (Percentage of Control) disease level, Plasmopara viticola (Vines) [3, 9] | POCO (Percentage of Control) disease level, Puccinia recondita (Wheat) [4, 10] | POCO (Percentage of Control) disease level, Phytophthora infestans (Tomatoes) [6, 9] | POCO (Percentage of Control) disease level, Thanatephorus cucumeries (Rice) [7, 9] | POCO (Percentage of Control) disease level, Erysiphe graminis tritici (Wheat) [8, 9] | POCO (Percentage of Control) disease level, Puccinia recondita (Wheat) ([4]; 10 ppm foliar spray only, plants inoculated with Puccinia recondita 48 hours before treatment) | POCO (Percentage of Control) disease level, Erysiphe graminis tritici (Wheat) ([8]; 10 ppm foliar spray only) | POCO (Percentage of Control) disease level, Puccinia recondita (Wheat) [4, 11] | POCO (Percentage of Control) disease level, Venturia inaequalis (Apples) [5, 9] |
| --- | --- | --- | --- | --- | --- | --- | --- | --- | --- | --- | --- | --- | --- | --- | --- | --- | --- | --- |
| COC=C(C(=O)OC)c1ccccc1COC(=S)Nc1ccccc1 [5 (6)] | 60 (60 = 30.1-60% disease present) | 90 (90 and 94 = 60.1-100% disease present) | 90 (90 and 94 = 60.1-100% disease present) | 90 (90 and 94 = 60.1-100% disease present) | 0 (0 = 0% disease present) | 90 (90 and 94 = 60.1-100% disease present) | 0 (0 = 0% disease present) | – | – | – | – | – | – | – | – | – | – | – |
| COC=C(C(=O)OC)c1ccccc1COC(=O)Nc1cccc(OC)c1 [7 (1)] | – | – | – | – | – | – | – | 0 (0 = 0% disease present) | 90 (90 and 94 = 60.1-100% disease present) | 60 (60 = 30.1-60% disease present) | 10 (10 = 5.1-10% disease present) | 90 (90 and 94 = 60.1-100% disease present) | 60 (60 = 30.1-60% disease present) | 5 (5 = 3.1-5% disease present) | – | – | – | – |
| COC=C(C(=O)OC)c1ccccc1COC(=S)Nc1ccc([N+](=O)[O-])cc1 [9 (6)] | – | – | – | – | – | – | – | 20 (20 and 24 = 10.1-20% disease present) | 90 (90 and 94 = 60.1-100% disease present) | 90 (90 and 94 = 60.1-100% disease present) | 90 (90 and 94 = 60.1-100% disease present) | – | 90 (90 and 94 = 60.1-100% disease present) | 90 (90 and 94 = 60.1-100% disease present) | – | – | – | – |
| COC=C(C(=O)OC)c1ccccc1COC(=O)Nc1cccc(SC)c1 [10 (1)] | – | 90 (90 and 94 = 60.1-100% disease present) | 90 (90 and 94 = 60.1-100% disease present) | – | 0 (0 = 0% disease present) | 90 (90 and 94 = 60.1-100% disease present) | 90 (90 and 94 = 60.1-100% disease present) | – | – | – | – | – | – | – | 90+ (90 and 94 = 60.1-100% disease present) | 90 (90 and 94 = 60.1-100% disease present) | – | – |
| COC=C(C(=O)OC)c1ccccc1COC(=O)Nc1ccccc1[N+](=O)[O-] [15 (1)] | – | – | – | – | – | – | – | 5 (5 = 3.1-5% disease present) | 0 (0 = 0% disease present) | 0 (0 = 0% disease present) | – | 3 (3 = 1.1-3% disease present) | – | – | – | – | 90+ (90 and 94 = 60.1-100% disease present) | 0 (0 = 0% disease present) |
| COC=C(C(=O)OC)c1ccccc1COC(=O)N(C)c1ccccc1[N+](=O)[O-] [15 (2)] | – | – | – | – | – | – | – | 0 (0 = 0% disease present) | 5 (5 = 3.1-5% disease present) | 0 (0 = 0% disease present) | – | 60 (60 = 30.1-60% disease present) | – | – | – | – | 0+ (0 = 0% disease present) | 0 (0 = 0% disease present) |
| COC=C(C(=O)OC)c1ccccc1COC(=S)Nc1ccccc1SC [21 (6)] | – | – | – | – | – | – | – | 0 (0 = 0% disease present) | 0 (0 = 0% disease present) | 0 (0 = 0% disease present) | 0 (0 = 0% disease present) | – | 0 (0 = 0% disease present) | 3 (3 = 1.1-3% disease present) | – | – | – | – |
| COC=C(C(=O)OC)c1ccccc1COC(=O)N(C)c1cc(F)ccc1F [27 (2)] | – | – | – | – | – | – | – | 0 (0 = 0% disease present) | 0 (0 = 0% disease present) | 0 (0 = 0% disease present) | – | 5 (5 = 3.1-5% disease present) | 0 (0 = 0% disease present) | – | – | – | 0+ (0 = 0% disease present) | 0 (0 = 0% disease present) |
| COC=C(C(=O)OC)c1ccccc1COC(=O)Nc1ccccc1C#N [29 (1)] | – | – | – | – | – | – | – | 0 (0 = 0% disease present) | 60 (60 = 30.1-60% disease present) | 20 (20 and 24 = 10.1-20% disease present) | – | – | 5 (5 = 3.1-5% disease present) | 5 (5 = 3.1-5% disease present) | – | – | 30+ (30 = 20.1-30% disease present) | 0 (0 = 0% disease present) |
| COC=C(C(=O)OC)c1ccccc1COC(=O)N(C)c1ccccc1C#N [29 (2)] | – | – | – | – | – | – | – | 0 (0 = 0% disease present) | 30 (30 = 20.1-30% disease present) | 0 (0 = 0% disease present) | – | – | 30 (30 = 20.1-30% disease present) | 0 (0 = 0% disease present) | – | – | 20+ (20 and 24 = 10.1-20% disease present) | 0 (0 = 0% disease present) |
| CCN(C(=O)OCc1ccccc1C(=COC)C(=O)OC)c1ccc(F)c(Cl)c1 [104 (3)] | – | – | – | – | – | – | – | – | 10 (10 = 5.1-10% disease present) | 0 (0 = 0% disease present) | – | 10 (10 = 5.1-10% disease present) | 0 (0 = 0% disease present) | 0 (0 = 0% disease present) | – | – | 0+ (0 = 0% disease present) | 0 (0 = 0% disease present) |
| COC=C(C(=O)OC)c1ccccc1COC(=O)N(C)c1cccc([N+](=O)[O-])c1F [106 (2)] | – | – | – | – | – | – | – | – | 30 (30 = 20.1-30% disease present) | 0 (0 = 0% disease present) | – | 60 (60 = 30.1-60% disease present) | 0 (0 = 0% disease present) | 0 (0 = 0% disease present) | – | – | 30+ (30 = 20.1-30% disease present) | 0 (0 = 0% disease present) |
